Reference: patent US20090123507A1, “Metal Oxide Nanoparticles Coated With Specific N-Acylaminomethylene Phosphonates” (priority 2005, published 2009)

Assays:
[1] = system: E. coli (ATCC 10536); assay: European Standard Assay method EN 1040, antimicrobial bioassay; type: cell-based; conditions: logarithmic scale (5 = factor of 100000); for Bioassay data E. coli 5 min: 5 min incubation; for Bioassay data E. coli 30 min: 30 min incubation
Procedure: (§1) The titanium dioxide particles coated with the appropriate phosphonates were subsequently assayed according the European Standard Assay method EN 1040 against two representative microbes:
(§2) S. aureaus (ATCC 6538) and E. coli (ATCC 10536).
(§3) Both microbes were incubated with the coated nanoparticles together with their corresponding free phosphonates within the same apparent concentrations for 5 and 30 minutes, respectively.
(§4) The data are given in a logarithmic scale which means that the number 5 indicates an increase of activity by a factor of 100000.

[2] = system: S. aureus (ATCC 6538); assay: as above; type: cell-based; conditions: logarithmic scale (5 = factor of 100000); for Bioassay data S. aureus 5 min: 5 min incubation; for Bioassay data S. aureus 30 min: 30 min incubation
Procedure: as §1, §2, §3, §4

CCOP(=O)(CCC#N)OCC [Compound A]
<1: Bioassay data E. coli 5 min [1] | Bioassay data E. coli 30 min [1] | Bioassay data S. aureus 5 min [2] | Bioassay data S. aureus 30 min [2]

CCCCCCCCCCCCCCCCCC(=O)NCCP(=O)(OCC)OCC [Compound J]
<1: Bioassay data E. coli 5 min [1] | Bioassay data E. coli 30 min [1] | Bioassay data S. aureus 5 min [2] | Bioassay data S. aureus 30 min [2]

CCCCCCCC/C=C/CCCCCCCC(=O)NCCP(=O)(OCC)OCC [Compound K]
<1: Bioassay data E. coli 5 min [1] | Bioassay data E. coli 30 min [1] | Bioassay data S. aureus 5 min [2] | Bioassay data S. aureus 30 min [2]

CCOP(=O)(CCNC(=O)CCCCCN=[N+]=[N-])OCC [Compound L]
<1: Bioassay data E. coli 5 min [1] | Bioassay data E. coli 30 min [1] | Bioassay data S. aureus 5 min [2] | Bioassay data S. aureus 30 min [2]

CCOP(=O)(CCNC(=O)CCC(=O)O)OCC [Compound M]
<1: Bioassay data E. coli 5 min [1] | Bioassay data E. coli 30 min [1] | Bioassay data S. aureus 5 min [2] | Bioassay data S. aureus 30 min [2]

CCOP(=O)(CCCCNC(=O)OCc1ccccc1)OCC [Compound N]
<1: Bioassay data E. coli 5 min [1] | Bioassay data E. coli 30 min [1] | Bioassay data S. aureus 5 min [2] | Bioassay data S. aureus 30 min [2]
